Results published in patent publication US6737383B1, “Herbicidal oxadiazolidines” (priority 1999, dated 2004).

What was measured:
[1] = test system: bedstraw; assay: Test B pre/postemergence bedstraw; format: in vivo, Galium aparine
Procedure, shortened: (§1)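 Test chemicals in a non-phytotoxic solvent mixture with surfactant were sprayed preemergence onto planted seeds and postemergence onto plants 2 to 18 cm tall (1- to 4-leaf stage). After twelve to sixteen days in a greenhouse, injury was visually rated against untreated controls from 0 (no effect) to 10 (complete control).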

[2] = test system: blackgrass; assay: Test B pre/postemergence blackgrass; format: in vivo, Alopecurus myosuroides
Procedure, shortened: as §1

[3] = test system: surinam grass; assay: Test B pre/postemergence surinam grass; format: in vivo, Brachiaria decumbens
From the text: (§2) Seeds of bedstraw (Galium aparine), blackgrass (Alopecurus myosuroides), surinam grass (Brachiaria decumbens), cocklebur (Xanthium strumarium), corn (Zea mays), crabgrass (Digitaria sanguinalis), giant foxtail (Setaria faberii), morningglory (Ipomoea hederacea), pigweed (Amaranthus retroflexus), rape (Brassica napus), soybean (Glycine max), sugar beet (Beta vulgaris), velvetleaf (Abutilon theophrasti), wheat (Triticum aestivum), wild oat (Avena fatua) and purple nutsedge (Cyperus rotundus) tubers were planted and treated preemnergence with test chemicals formulated in a non-phytotoxic solvent mixture which included a surfactant.
(§3) At the same time, these crop and weed species were also treated with postemergence applications of test chemicals formulated in the same manner. Plants ranged in height from 2 to 18 cm (1- to 4-leaf stage) for postemergence treatments. Plant species in the flood test consisted of rice (Oryza sativa), smallflower flatsedge (Cyperus difformis), duck salad (Heteranthera limosa) and bamyardgrass (Echinochloa crus-galli) grown to the 2-leaf stage for testing. Treated plants and controls were maintained in a greenhouse for twelve to sixteen days, after which all species were compared to controls and visually evaluated. Plant response ratings, summarized in Table B, are based on a scale of 0 to 10 where 0 is no effect and 10 is complete control. A dash (−) response means no test result.

[4] = test system: cocklebur; assay: Test B pre/postemergence cocklebur; format: in vivo, Xanthium strumarium
From the text: as §2, §3

[5] = test system: corn; assay: Test B pre/postemergence corn; format: in vivo, Zea mays
From the text: as §2, §3

[6] = test system: crabgrass; assay: Test B pre/postemergence crabgrass; format: in vivo, Digitaria sanguinalis
Procedure, shortened: as §1

[7] = test system: giant foxtail; assay: Test B pre/postemergence giant foxtail; format: in vivo, Setaria faberii
Procedure, shortened: as §1

[8] = test system: morningglory; assay: Test B pre/postemergence morningglory; format: in vivo, Ipomoea hederacea
Procedure, shortened: as §1

[9] = test system: pigweed; assay: Test B pre/postemergence pigweed; format: in vivo, Amaranthus retroflexus
Procedure, shortened: as §1

[10] = test system: rape; assay: Test B pre/postemergence rape; format: in vivo, Brassica napus
Procedure, shortened: as §1

[11] = test system: soybean; assay: Test B pre/postemergence soybean; format: in vivo, Glycine max
Procedure, shortened: as §1

[12] = test system: sugar beet; assay: Test B pre/postemergence sugar beet; format: in vivo, Beta vulgaris
Procedure, shortened: as §1

[13] = test system: velvetleaf; assay: Test B pre/postemergence velvetleaf; format: in vivo, Abutilon theophrasti
Procedure, shortened: as §1

[14] = test system: wheat; assay: Test B pre/postemergence wheat; format: in vivo, Triticum aestivum
Procedure, shortened: as §1

[15] = test system: wild oat; assay: Test B pre/postemergence wild oat; format: in vivo, Avena fatua
Procedure, shortened: as §1

[16] = test system: purple nutsedge; assay: Test B pre/postemergence purple nutsedge; format: in vivo, Cyperus rotundus
Procedure, shortened: as §1

[17] = Postemergence, Rate 125 g/ha, scale of 0 to 10 where 0 is no effect and 10 is complete control
[18] = Preemergence, Rate 62 g/ha, scale of 0 to 10 where 0 is no effect and 10 is complete control
[19] = Preemergence, Rate 125 g/ha, scale of 0 to 10 where 0 is no effect and 10 is complete control
[20] = Preemergence, Rate 250 g/ha, scale 0 to 10 (0 no effect, 10 complete control)
[21] = Preemergence, Rate 500 g/ha, scale of 0 to 10 where 0 is no effect and 10 is complete control
[22] = Postemergence, Rate 62 g/ha, scale 0 to 10, 0 is no effect, 10 is complete control
[23] = Postemergence, Rate 250 g/ha, scale of 0 to 10, 0 is no effect, 10 is complete control
[24] = Postemergence, Rate 500 g/ha, scale of 0 to 10 where 0 is no effect and 10 is complete control

Question: Which results are given for `C=C(Cn1c(=O)on(C(=O)N(c2ccccc2)C(C)C)c1=O)C(C)(C)C` [Compound 648]?
Answer: Bedstraw plant response rating [1, 17]: 0; Bedstraw plant response rating [1, 18]: 0; Bedstraw plant response rating [1, 19]: 0; Plant response rating, Bedstraw [1, 20]: 0; Plant response rating, Bedstraw [1, 21]: 0; Plant response rating, Blackgrass [2, 22]: 0; Blackgrass plant response rating [2, 17]: 0; Blackgrass plant response rating [2, 23]: 0; Plant response rating, Blackgrass [2, 24]: 0; Blackgrass plant response rating [2, 18]: 0; Blackgrass plant response rating [2, 19]: 0; Plant response rating, Blackgrass [2, 20]: 2; Plant response rating, Blackgrass [2, 21]: 5; Plant response rating, B. signalgrass [3, 22]: 0; Plant response rating, B. signalgrass [3, 17]: 0; B. signalgrass plant response rating [3, 23]: 0; Plant response rating, B. signalgrass [3, 24]: 0; B. signalgrass plant response rating [3, 18]: 0; B. signalgrass plant response rating [3, 19]: 0; Plant response rating, B. signalgrass [3, 20]: 0; Plant response rating, B. signalgrass [3, 21]: 5; Plant response rating, Cocklebur [4, 22]: 0; Cocklebur plant response rating [4, 17]: 0; Cocklebur plant response rating [4, 23]: 0; Plant response rating, Cocklebur [4, 24]: 2; Cocklebur plant response rating [4, 18]: 0; Cocklebur plant response rating [4, 19]: 0; Plant response rating, Cocklebur [4, 21]: 0; Plant response rating, Corn [5, 22]: 0; Corn plant response rating [5, 17]: 0; Corn plant response rating [5, 23]: 0; Plant response rating, Corn [5, 24]: 0; Corn plant response rating [5, 18]: 0; Corn plant response rating [5, 19]: 0; Plant response rating, Corn [5, 20]: 0; Plant response rating, Corn [5, 21]: 0; Plant response rating, Crabgrass [6, 22]: 0; Crabgrass plant response rating [6, 17]: 0; Crabgrass plant response rating [6, 23]: 0; Plant response rating, Crabgrass [6, 24]: 7; Crabgrass plant response rating [6, 18]: 0; Crabgrass plant response rating [6, 19]: 8; Plant response rating, Crabgrass [6, 20]: 9; Plant response rating, Crabgrass [6, 21]: 9; Plant response rating, Giant foxtail [7, 22]: 0; Giant foxtail plant response rating [7, 17]: 0; Giant foxtail plant response rating [7, 23]: 0; Plant response rating, Giant foxtail [7, 24]: 3; Giant foxtail plant response rating [7, 18]: 5; Giant foxtail plant response rating [7, 19]: 9; Plant response rating, Giant foxtail [7, 20]: 9; Plant response rating, Giant foxtail [7, 21]: 9; Plant response rating, Morningglory [8, 22]: 6; Morningglory plant response rating [8, 17]: 10; Morningglory plant response rating [8, 23]: 10; Plant response rating, Morningglory [8, 24]: 10; Morningglory plant response rating [8, 18]: 0; Morningglory plant response rating [8, 19]: 0; Plant response rating, Morningglory [8, 20]: 0; Plant response rating, Morningglory [8, 21]: 0; Plant response rating, Redroot pigweed [9, 22]: 0; Redroot pigweed plant response rating [9, 17]: 3; Redroot pigweed plant response rating [9, 18]: 0; Redroot pigweed plant response rating [9, 19]: 0; Plant response rating, Redroot pigweed [9, 20]: 0; Plant response rating, Redroot pigweed [9, 21]: 2; Plant response rating, Rape [10, 22]: 0; Rape plant response rating [10, 17]: 0; Plant response rating, Rape [10, 24]: 2; Rape plant response rating [10, 18]: 0; Rape plant response rating [10, 19]: 0; Plant response rating, Rape [10, 20]: 0; Plant response rating, Rape [10, 21]: 0; Plant response rating, Soybean [11, 22]: 0; Soybean plant response rating [11, 17]: 2; Soybean plant response rating [11, 18]: 0; Soybean plant response rating [11, 19]: 0; Plant response rating, Soybean [11, 20]: 0; Plant response rating, Soybean [11, 21]: 0; Plant response rating, Sugarbeets [12, 22]: 0; Sugarbeets plant response rating [12, 17]: 0; Sugarbeets plant response rating [12, 18]: 0; Sugarbeets plant response rating [12, 19]: 0; Plant response rating, Sugarbeets [12, 20]: 0; Plant response rating, Sugarbeets [12, 21]: 0; Plant response rating, Velvetleaf [13, 22]: 0; Velvetleaf plant response rating [13, 17]: 0; Velvetleaf plant response rating [13, 18]: 0; Velvetleaf plant response rating [13, 19]: 0; Plant response rating, Velvetleaf [13, 20]: 0; Plant response rating, Velvetleaf [13, 21]: 0; Plant response rating, Wheat [14, 22]: 0; Wheat plant response rating [14, 17]: 0; Wheat plant response rating [14, 18]: 0; Wheat plant response rating [14, 19]: 0; Plant response rating, Wheat [14, 20]: 0; Plant response rating, Wheat [14, 21]: 0; Plant response rating, Wild oats [15, 22]: 0; Wild oats plant response rating [15, 17]: 0; Wild oats plant response rating [15, 18]: 0; Wild oats plant response rating [15, 19]: 0; Plant response rating, Wild oats [15, 20]: 0; Plant response rating, Wild oats [15, 21]: 0; Plant response rating, Nutsedge [16, 22]: 0; Nutsedge plant response rating [16, 17]: 0; Plant response rating, Nutsedge [16, 24]: 0; Nutsedge plant response rating [16, 18]: 0; Nutsedge plant response rating [16, 19]: 0; Plant response rating, Nutsedge [16, 20]: 0; Plant response rating, Nutsedge [16, 21]: 0
